According to EPA's ToxValDB 9.5:
Values joined by “and” are separate entries in the source; they are usually repeats but may differ in a detail not shown here. Identical values can stand only once.

Columns and labels:
Rattus norvegicus [1] = conditions: M/F
Rattus norvegicus [2] = system: Rattus norvegicus
Rattus norvegicus [3] = conditions: for NOEL: Hershberger, duration: 10 days, oral, gavage, Sprague-Dawley
Rattus norvegicus [4] = conditions: for LD50 / LC50: acute
Rattus norvegicus [5] = conditions: subchronic, oral; for NOEL: gavage
Oryctolagus sp. = conditions: acute; dermal; New Zealand
[6] = chronic, duration: 2 years, oral, diet, increased liver weight
[7] = reproduction developmental, oral, kidney, spleen, liver, and bone marrow toxicity
[8] = short-term, duration: 2 weeks, inhalation, B6C3F1
[9] = developmental, oral, reduced body weight gain in parental animals and pups
[10] = subchronic, duration: 13 weeks, oral, gavage, decreased testis weight and altered spermatogenesis in males. + Increased heart weight in females and males
[11] = subchronic, duration: 90 days, oral, diet, increased liver weight, serum cholesterol, hepatic aminopyrine n-demethylase activity, and alanine transaminase levels
[12] = short-term, duration: 2 weeks, oral, gavage, B6C3F1
[13] = subchronic, duration: 13 weeks, inhalation, B6C3F1
[14] = subchronic, duration: 13 weeks, oral, gavage, B6C3F1
[15] = short-term, duration: 2 weeks, oral, gavage, Fischer 344
[16] = subchronic, duration: 13 weeks, inhalation, Sprague-Dawley
[17] = subchronic, duration: 13 weeks, oral, gavage, F, Fischer 344
[18] = subchronic, duration: 13 weeks, oral, gavage, M, Fischer 344
[19] = reproduction developmental, oral, reduced body weight gain in f1 females
[20] = chronic, duration: 2 years, oral, diet, reduced weight gain, organ weight changes, increased mortality
[21] = subchronic, oral, kidney lesions

`CC1(C)C(C=C(Cl)Cl)C1C(=O)OCc1cccc(Oc2ccccc2)c1` (stereo not drawn) [Permethrin] showed an LEL (Rattus norvegicus [1]; [6]) of 25 mg/kg-day, an NOEL (Rattus norvegicus [1]; [6]) of 5 mg/kg-day and an NOAEL (Rattus norvegicus [2]; acute, duration: 1 days, oral, gavage, M/F, Long-Evans, neurological) of 25 mg/kg-day. The NOAEL (Rattus norvegicus [2]; subchronic, duration: 13 weeks, oral, diet, M/F, Sprague-Dawley, neurological) was 15.5 mg/kg-day, the NOEL (Rattus norvegicus [3]; inactive + Negative + Negative + neither + no effects on PPS, AST, testis/epididymal wt, serum testosterone, and liver wt increased 11% at …) was 120 mg/kg-day and the LEL (Rattus norvegicus [3]; uterotrophic, duration: 3 days, injection, subcutaneous, Active) was 800 mg/kg-day.

For `C=CC(=O)NCO` [N-Methylolacrylamide], the LD50 (Mus musculus; acute, oral, DD) was 677 mg/kg, the LD50 (Mus musculus; acute, oral, gavage, B6C3F1) was 400 mg/kg and the NOAEL (Mus musculus; short-term, duration: 16 days, oral, gavage, B6C3F1) was 100 mg/kg-day. For the same compound, the NOAEL (Mus musculus; subchronic, duration: 90 days, oral, gavage, B6C3F1) was 12.5 mg/kg-day, the LD50 (Rattus norvegicus [4]; oral, gavage, Fischer 344) was 400 mg/kg and the NOAEL (Rattus norvegicus [4]; short-term, duration: 16 days, oral, gavage, Fischer 344) was 50 mg/kg-day. The NOAEL (Rattus norvegicus [4]; short-term, duration: 28 days, oral, diet) was 4 mg/kg-day, the NOAEL (Rattus norvegicus [4]; subchronic, duration: 90 days, oral, gavage, Fischer 344) was 12.5 mg/kg-day and the NOEL (Rattus norvegicus [5]; duration: 13 weeks, M/F, Fischer 344, Deaths + Clinical Observation: Hind limb paresis + Functional Observational Battery: Hind limb-grip strength decrease Auditory startle …) was less than 12.5 mg/kg-day.

In the case of `CC(C)OC(=O)Nc1cccc(Cl)c1` [Chlorpropham], the NOAEL (Rattus norvegicus [5]; duration: 90 days, diet, M/F, Fischer 344, Clinical Observation: Pale + Body Weight Changes: decrease + Hematology: RBC decrease, HGB decrease, HCT decrease, MCV increase, MCH …) is reported as less than 720 mg/kg-day, the LEL (Rattus norvegicus [1]; [7]) is reported as 150 mg/kg-day and the NOEL (Rattus norvegicus [1]; [7]) is reported as 50 mg/kg-day.

With `c1ccc(NNc2ccccc2)cc1` [1,2-Diphenylhydrazine] the NOAEL (Rattus norvegicus [2]; subchronic, duration: 13 weeks, oral, diet, M, Fischer 344, hepatic) was 4.8 mg/kg-day.

For `CCCCC(C)=O` [2-Hexanone], the LOAEL (Rattus norvegicus [2]; chronic, duration: 13 months, oral, drinking water, M, Sprague-Dawley, neurological) was 143 mg/kg-day.

In the case of `c1ccc(-c2ccccc2)cc1` [Biphenyl], the LOAEL (Mus musculus; subchronic, duration: 13 weeks, inhalation, CD1) is reported as 158 mg/m3, the LD50 (Oryctolagus sp.) is reported as greater than 5010 mg/kg and the LD50 (Rattus norvegicus [4]; oral, Sprague-Dawley) is reported as 2400 mg/kg. It also gave an LD50 (Rattus norvegicus [4]; oral, gavage, Sprague-Dawley) of 3280 mg/kg, an NOAEL (Rattus norvegicus [4]; chronic, duration: 750 days, oral, diet) of 78 mg/kg-day and an NOAEL (Rattus norvegicus [4]; developmental, duration: 10 days, oral, gavage, Wistar) of 500 mg/kg-day. The NOAEL (Rattus norvegicus [4]; reproduction developmental, duration: 10 days, oral, gavage, F, Wistar) was 500 mg/kg-day, the NOAEL (Rattus norvegicus [4]; reproduction developmental, duration: 750 days, oral, diet, generation: F0) was 1000 ppm and the NOAEL (Rattus norvegicus [4]; reproduction developmental, duration: 750 days, oral, diet, generation: F1) was 5000 ppm. For the same compound, the NOAEL (Rattus norvegicus [4]; reproduction developmental, oral, diet, Long-Evans, generation: F0) was 1000 ppm.

Compound `CCCCCCCCCCCCCCC` [Pentadecane] has an LD50 (Mus musculus; acute, injection, intravenous) of 3490 mg/kg.

In the case of `Clc1ccc(C(Cl)(Cl)Cl)cn1` [2-Chloro-5-trichloromethylpyridine], the NOAEL (Mus musculus; [8]) is reported as 9.44 mg/m3, the LC50 (Rattus norvegicus [4]; Inhalation, Fischer 344) is reported as greater than 108 mg/m3 and the LD50 (Rattus norvegicus [4]; oral, gavage, Sprague-Dawley) is reported as ≥ 500 mg/kg and ≤ 1000 mg/kg. It also gave an NOAEL (Rattus norvegicus [4]; short-term, duration: 2 weeks, Inhalation, Fischer 344) of 9.44 mg/m3.

Compound `CC(C)Oc1cccc(NC(=O)c2ccccc2C(F)(F)F)c1` [Flutolanil] has an LEL (Rattus norvegicus [1]; reproduction developmental, oral, Decreased body weight and body weight gains in both doses increased liver weights at high dose) of 63.7 mg/kg-day and an NOEL (Rattus norvegicus [3]; inactive + Negative + neither + negative) of 1000 mg/kg-day.

`COC(=O)Nc1cccc(OC(=O)Nc2cccc(C)c2)c1` [Phenmedipham] showed an NOAEL (Rattus norvegicus [1]; chronic, duration: 2 years, oral, diet, no effects) of 25 mg/kg-day.

`Nc1ccc(Cl)cc1` [4-Chloroaniline] showed an LOAEL (Rattus norvegicus [1]; chronic, oral, nonneoplastic lesions of splenic capsule) of 12.5 mg/kg-day.

`O=C(CCl)c1ccccc1` [2-Chloroacetophenone] gave an LOAEL (Rattus norvegicus [1]; chronic, inhalation, squamous hyperplasia of the nasal respiratory epithelium) of 1 mg/m3.

Work on `CCN(CC)C(=O)C(C)Oc1cccc2ccccc12` (stereo not drawn) [Napropamide] yielded an LEL (Rattus norvegicus [1]; [9]) of 100 mg/kg-day and an NOEL (Rattus norvegicus [1]; [9]) of 30 mg/kg-day.

With `[Mo]` [Molybdenum] the NOAEL (Rattus norvegicus [2]; subchronic, duration: 90 days, oral, diet, M/F, Sprague-Dawley, renal) was 17 mg/kg-day.

`O=C([O-])CF.[Na+]` [Sodium fluoroacetate] was tested, and the LOAEL (Rattus norvegicus [1]; [10]) was 0.2 mg/kg-day and the NOAEL (Rattus norvegicus [1]; [10]) was 0.05 mg/kg-day.

For `CC(C)(C)[C@H](O)[C@H](Cc1ccc(Cl)cc1)n1cncn1` (racemic) [Paclobutrazol], the LEL (Rattus norvegicus [1]; [11]) was 62.5 mg/kg-day and the NOEL (Rattus norvegicus [1]; [11]) was 12.5 mg/kg-day.

Work on `C=CC1CC=CCC1` (stereo not drawn) [4-Vinylcyclohexene] yielded an LC50 (Mus musculus; acute, inhalation) of 46900 mg/m3, an NOAEL (Mus musculus; [8]) of 3190 mg/m3 and an LOAEL (Mus musculus; [12]) of 2500 mg/kg-day. It also gave an NOAEL (Mus musculus; [12]) of 1250 mg/kg-day, an LOAEL (Mus musculus; [13]) of 4420 mg/m3 and an NOAEL (Mus musculus; [13]) of 1110 mg/m3. For the same compound, the LOAEL (Mus musculus; [14]) was 1200 mg/kg-day, the NOAEL (Mus musculus; [14]) was 600 mg/kg-day and the LC50 (Rattus norvegicus [4]; inhalation) was 27000 mg/m3 and < 35400 mg/m3. For the same compound, the LD50 (Rattus norvegicus [4]; oral, gavage, Carworth Wistar) was 2560 mg/kg, the NOAEC (Rattus norvegicus [4]; short-term, duration: 2 weeks, inhalation, F, Sprague-Dawley) was 6640 mg/m3 and the NOAEC (Rattus norvegicus [4]; short-term, duration: 2 weeks, inhalation, M, Sprague-Dawley) was 3190 mg/m3. It also gave an LOAEL (Rattus norvegicus [4]; [15]) of 1250 mg/kg-day, an NOAEL (Rattus norvegicus [4]; [15]) of 600 mg/kg-day and an LOAEL (Rattus norvegicus [4]; [16]) of 4420 mg/m3. For the same compound, the NOAEL (Rattus norvegicus [4]; [16]) was 1110 mg/m3, the LOAEL (Rattus norvegicus [4]; [17]) was 800 mg/kg-day and the NOAEL (Rattus norvegicus [4]; [17]) was 400 mg/kg-day. It also gave an LOAEL (Rattus norvegicus [4]; [18]) of 400 mg/kg-day, an NOAEL (Rattus norvegicus [4]; [18]) of 200 mg/kg-day and an NOEL (Rattus norvegicus [5]; duration: 13 weeks, M/F, Fischer 344, Deaths + Body Weight Changes: decrease + Histopathology: Kidney-Hyaline droplet degeneration Glandular stomach-Inflammation) of less than 50 mg/kg-day. The NOEL (Rattus norvegicus [5]; M, Sprague-Dawley, Clinical Observation: Salivation Locomotor activity decrease + Relative Organ Weight: Kidney increase + Histopathology: Stomach/Glandular …) was less than 2 mg/kg-day.

For `CC(Cl)CCl` (stereo not drawn) [1,2-Dichloropropane], the NOEL (Rattus norvegicus [5]; duration: 13 weeks, M/F, Fischer 344, Deaths + Body Weight Changes: decrease + Histopathology: Liver/centrilobular-Congestion Liver-Hepatic fatty change Liver/centrilobular -…) was 250 mg/kg-day, the LOAEL (Rattus norvegicus [1]; subchronic, duration: 13 weeks, inhalation, hyperplasia of the nasal mucosa) was 69.3 mg/m3 and the LOAEL (Rattus norvegicus [2]; short-term, duration: 2 weeks, inhalation, M/F, Fischer 344, respiratory) was 462 mg/m3. The LOAEL (Rattus norvegicus [2]; subchronic, duration: 13 weeks, oral, gavage, M, Sprague-Dawley, hematological) was 100 mg/kg-day.

In the case of `CCCCCCCCCCCCN` [1-Dodecanamine], the LD50 (Mus musculus; acute, oral, gavage) is reported as 1160 mg/kg, the LD50 (Rattus norvegicus [4]; oral, gavage) is reported as 1020 mg/kg and the LD50 (Rattus norvegicus [4]; oral, gavage, Wistar) is reported as greater than 2000 mg/kg.

With `CNC(=O)N(C)c1nnc(C(C)(C)C)s1` [Tebuthiuron] the LEL (Rattus norvegicus [1]; [19]) was 14 mg/kg-day and the NOEL (Rattus norvegicus [1]; [19]) was 7 mg/kg-day.

`C=C(Cl)CCl` [2,3-Dichloro-1-propene] showed an LOAEL (Rattus norvegicus [2]; short-term, duration: 11 days, inhalation, M/F, Fischer 344, respiratory) of 22.7 mg/m3.

`CC1=C(C(=O)Nc2ccccc2)SCCO1` [Carboxin] showed an LEL (Rattus norvegicus [1]; [20]) of 30 mg/kg-day and an NOEL (Rattus norvegicus [1]; [20]) of 10 mg/kg-day.

In the case of `Clc1cc(Cl)c(Cl)cc1Cl` [1,2,4,5-Tetrachlorobenzene], the LOAEL (Rattus norvegicus [1]; [21]) is reported as 3.4 mg/kg-day and the NOAEL (Rattus norvegicus [1]; [21]) is reported as 0.34 mg/kg-day.
